Data: patent publication US11524966B1 (Valo Early Discovery, Inc., priority 2017, dated 2022)

Biological target: T1, USP28 (His-tagged USP28-FL-mammalian) (Homo sapiens, UniProt Q96RU2)
T1 construct: Expression of USP28 (1-1077)-TEV-6*His (pTT5 vector); made in house; host or cells: Expi293f cells (pTT5 vector)
T1 sequence (Q96RU2 1-1077): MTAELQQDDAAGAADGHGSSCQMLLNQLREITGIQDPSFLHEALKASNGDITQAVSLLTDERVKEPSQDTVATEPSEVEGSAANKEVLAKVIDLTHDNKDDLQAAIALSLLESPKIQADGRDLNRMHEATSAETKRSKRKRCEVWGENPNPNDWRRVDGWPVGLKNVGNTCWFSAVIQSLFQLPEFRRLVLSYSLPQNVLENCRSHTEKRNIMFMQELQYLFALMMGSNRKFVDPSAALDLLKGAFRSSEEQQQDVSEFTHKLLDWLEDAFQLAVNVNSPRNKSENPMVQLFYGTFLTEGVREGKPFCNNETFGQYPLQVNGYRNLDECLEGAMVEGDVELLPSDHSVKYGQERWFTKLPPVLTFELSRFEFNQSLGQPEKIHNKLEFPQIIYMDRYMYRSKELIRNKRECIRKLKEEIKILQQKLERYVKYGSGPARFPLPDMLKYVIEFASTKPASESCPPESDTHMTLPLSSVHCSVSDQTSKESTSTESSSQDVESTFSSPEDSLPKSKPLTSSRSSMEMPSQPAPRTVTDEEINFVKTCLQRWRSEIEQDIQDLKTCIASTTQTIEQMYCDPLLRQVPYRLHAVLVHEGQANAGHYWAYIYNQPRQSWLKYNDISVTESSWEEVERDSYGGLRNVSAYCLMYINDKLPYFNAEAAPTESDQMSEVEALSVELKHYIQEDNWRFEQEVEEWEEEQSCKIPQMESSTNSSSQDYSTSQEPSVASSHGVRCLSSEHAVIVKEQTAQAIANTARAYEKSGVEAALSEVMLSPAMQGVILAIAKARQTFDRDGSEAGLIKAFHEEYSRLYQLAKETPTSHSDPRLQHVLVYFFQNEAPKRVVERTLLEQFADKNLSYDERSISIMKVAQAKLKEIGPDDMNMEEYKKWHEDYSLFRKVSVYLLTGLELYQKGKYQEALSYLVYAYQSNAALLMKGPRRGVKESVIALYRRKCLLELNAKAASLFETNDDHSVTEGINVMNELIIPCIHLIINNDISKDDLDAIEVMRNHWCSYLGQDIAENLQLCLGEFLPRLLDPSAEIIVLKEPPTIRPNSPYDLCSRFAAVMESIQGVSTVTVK
Assay: Ubiquitin-Rhodamine 110 Assay for USP28 Activity, Example A-1(a)
Type: biochemical
Conditions: Ubiquitin-Rhodamine 110 assay, Example A-1(a); read-out: USP28 A-1(a) IC50 range
Procedure, shortened: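 IC50 from 4-parameter logistic fit of percent inhibition versus no-enzyme and DMSO controls; compounds 25 μM to 1.3 nM, 3-fold. Ub-Rh110 cleavage (25 nM, below Km) by […] mammalian-expressed USP28-FL-His ran 45 min at room temperature, stopped with 10 mM citric acid, read ex 485/em 535.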

| Structure (SMILES) | IC50 |
| --- | --- |
| Cc1cc(C)c2c(N)c(C(=O)N[C@H]3COc4cc(N5CC[C@@H]6CNC[C@@H]65)ccc4C3)sc2n1 [Example 227, N-[(3R)-7-[(3aR,6aR)-octahydropyrrolo[2,3-c]pyrrol-1-yl]-3,4-dihydro-2H-1-benzopyran-3-yl]-3-amino-4,6-dimethylthieno[2,3-b]pyridine-2-carboxamide] | 1 to 50 nM |
| N#Cc1c(N2CC3CCC(C2)N3)cc(F)c2c1OC[C@H](NC(=O)c1cnc3c(c1)[C@@H]1C[C@@H]1CN3)C2 [Example 228, (6aS,7aR)-N-[(3R)-8-cyano-7-{3,8-diazabicyclo[3.2.1]octan-3-yl}-5-fluoro-3,4-dihydro-2H-1-benzopyran-3-yl]-5H,6H,6aH,7H,7aH-cyclopropa[c]1,8-naphthyridine-2-carboxamide] | 200 to 2000 nM |
| N#Cc1c(N2CC3CCC(C2)N3)cc(F)c2c1OC[C@H](NC(=O)c1cnc3c(c1)[C@H]1C[C@H]1CN3)C2 [Example 229, (6aR,7aS)-N-[(3R)-8-cyano-7-{3,8-diazabicyclo[3.2.1]octan-3-yl}-5-fluoro-3,4-dihydro-2H-1-benzopyran-3-yl]-5H,6H,6aH,7H,7aH-cyclopropa[c]1,8-naphthyridine-2-carboxamide] | 200 to 2000 nM |
| Cc1cc(C)c2c(N)c(C(=O)N[C@H]3COc4c(C#N)c(N5CC6CCC(C5)N6)cc(F)c4C3)sc2n1 [Example 230, 3-amino-N-[(3R)-8-cyano-7-{3,8-diazabicyclo[3.2.1]octan-3-yl}-5-fluoro-3,4-dihydro-2H-1-benzopyran-3-yl]-4,6-dimethylthieno[2,3-b]pyridine-2-carboxamide] | 1 to 50 nM |
| Cc1ccc2c(N)c(C(=O)N[C@H]3COc4cc(N5CC[C@H]6CC[C@@H](N)C[C@H]65)ccc4C3)sc2n1 [Example 231, N-[(3R)-7-[(3aR,6R,7aR)-6-amino-octahydro-1H-indol-1-yl]-3,4-dihydro-2H-1-benzopyran-3-yl]-3-amino-6-methylthieno[2,3-b]pyridine-2-carboxamide] | 1 to 50 nM |
| Cc1ccc2c(N)c(C(=O)N[C@H]3COc4cc(N5CC[C@H]6CC[C@H](N)C[C@H]65)ccc4C3)sc2n1 [Example 232, N-[(3R)-7-[(3aR,6S,7aR)-6-amino-octahydro-1H-indol-1-yl]-3,4-dihydro-2H-1-benzopyran-3-yl]-3-amino-6-methylthieno[2,3-b]pyridine-2-carboxamide] | 1 to 50 nM |
| Cc1ccc2c(N)c(C(=O)N[C@H]3COc4cc(N5CC[C@@H]6CC[C@@H](N)C[C@@H]65)ccc4C3)sc2n1 [Example 233, N-[(3R)-7-[(3aS,6R,7aS)-6-amino-octahydro-1H-indol-1-yl]-3,4-dihydro-2H-1-benzopyran-3-yl]-3-amino-6-methylthieno[2,3-b]pyridine-2-carboxamide] | 1 to 50 nM |
| Cc1ccc2c(N)c(C(=O)N[C@H]3COc4cc(N5CC[C@@H]6CC[C@H](N)C[C@@H]65)ccc4C3)sc2n1 [Example 234, N-[(3R)-7-[(3aS,6S,7aS)-6-amino-octahydro-1H-indol-1-yl]-3,4-dihydro-2H-1-benzopyran-3-yl]-3-amino-6-methylthieno[2,3-b]pyridine-2-carboxamide] | 1 to 50 nM |
| Cc1ccc2c(N)c(C(=O)N[C@H]3COc4cc(N5CC[C@H]6CNCC[C@H]65)ccc4C3)sc2n1 [Example 235, N-[(3R)-7-[(3aS,7aR)-octahydro-1H-pyrrolo[3,2-c]pyridin-1-yl]-3,4-dihydro-2H-1-benzopyran-3-yl]-3-amino-6-methylthieno[2,3-b]pyridine-2-carboxamide] | 1 to 50 nM |
| Cc1ccc2c(N)c(C(=O)N[C@H]3COc4cc(N5CC[C@@H]6CNCC[C@@H]65)ccc4C3)sc2n1 [Example 236, N-[(3R)-7-[(3aR,7aS)-octahydro-1H-pyrrolo[3,2-c]pyridin-1-yl]-3,4-dihydro-2H-1-benzopyran-3-yl]-3-amino-6-methylthieno[2,3-b]pyridine-2-carboxamide] | 1 to 50 nM |
| Cc1ccc2c(N)c(C(=O)N[C@H]3COc4cc(N5C[C@@H]6NCCC(F)(F)[C@@H]6C5)ccc4C3)sc2n1 [Example 237, N-[(3R)-7-[(4aR,7aR)-4,4-difluoro-octahydro-1H-pyrrolo[3,4-b]pyridin-6-yl]-3,4-dihydro-2H-1-benzopyran-3-yl]-3-amino-6-methylthieno[2,3-b]pyridine-2-carboxamide] | 1 to 50 nM |
| Cc1ccc2c(N)c(C(=O)N[C@H]3COc4cc(N5C[C@H]6NCCC(F)(F)[C@H]6C5)ccc4C3)sc2n1 [Example 238, N-[(3R)-7-[(4aS,7aS)-4,4-difluoro-octahydro-1H-pyrrolo[3,4-b]pyridin-6-yl]-3,4-dihydro-2H-1-benzopyran-3-yl]-3-amino-6-methylthieno[2,3-b]pyridine-2-carboxamide] | 1 to 50 nM |
| CO[C@H]1CN(c2ccc3c(n2)CC[C@H](NC(=O)c2sc4nc(C)ccc4c2N)C3)C[C@]1(C)N [Example 239, 3-amino-N-[(6S)-2-[(3S,4S)-3-amino-4-methoxy-3-methylpyrrolidin-1-yl]-5,6,7,8-tetrahydroquinolin-6-yl]-6-methylthieno[2,3-b]pyridine-2-carboxamide] | 200 to 2000 nM |
| CO[C@@H]1CN(c2ccc3c(n2)CC[C@H](NC(=O)c2sc4nc(C)ccc4c2N)C3)C[C@@]1(C)N [Example 240, 3-amino-N-[(6S)-2-[(3R,4R)-3-amino-4-methoxy-3-methylpyrrolidin-1-yl]-5,6,7,8-tetrahydroquinolin-6-yl]-6-methylthieno[2,3-b]pyridine-2-carboxamide] | 200 to 2000 nM |
| Cc1cc(C)c2c(N)c(C(=O)N[C@H]3COc4cc(N5CC6CCC(C5)N6)c(C#N)c(F)c4C3)sc2n1 [Example 241, 3-amino-N-[(3R)-6-cyano-7-{3,8-diazabicyclo[3.2.1]octan-3-yl}-5-fluoro-3,4-dihydro-2H-1-benzopyran-3-yl]-4,6-dimethylthieno[2,3-b]pyridine-2-carboxamide] | 1 to 50 nM |
| Cc1ccc2c(N)c(C(=O)N[C@H]3COc4cc(N5CCC[C@@H]6CNC[C@@H]65)ccc4C3)sc2n1 [Example 242, N-[(3R)-7-[(4aR,7aR)-octahydro-1H-pyrrolo[3,4-b]pyridin-1-yl]-3 ,4-dihydro-2H-1-benzopyran-3-yl]-3-amino-6-methylthieno[2,3-b]pyridine-2-carboxamide] | 1 to 50 nM |
| Cc1ccc2c(N)c(C(=O)N[C@H]3COc4cc(N5CCC[C@H]6CNC[C@H]65)ccc4C3)sc2n1 [Example 243, N-[(3R)-7-[(4aS,7aS)-octahydro-1H-pyrrolo[3,4-b]pyridin-1-yl]-3,4-dihydro-2H-1-benzopyran-3-yl]-3-amino-6-methylthieno[2,3-b]pyridine-2-carboxamide] | 1 to 50 nM |
| Cc1ccc2c(N)c(C(=O)N[C@H]3COc4cc(N5C[C@H](N)CC[C@@H]5C(F)(F)F)ccc4C3)sc2n1 [Example 244, 3-amino-N-[(3R)-7-[(2R,5R)-5-amino-2-(trifluoromethyl)piperidin-1-yl]-3,4-dihydro-2H-1-benzopyran-3-yl]-6-methylthieno[2,3-b]pyridine-2-carboxamide] | 1 to 50 nM |
| Cc1ccc2c(N)c(C(=O)N[C@H]3COc4cc(N5C[C@@H](N)CC[C@H]5C(F)(F)F)ccc4C3)sc2n1 [Example 245, 3-amino-N-[(3R)-7-[(2S,5S)-5-amino-2-(trifluoromethyl)piperidin-1-yl]-3,4-dihydro-2H-1-benzopyran-3-yl]-6-methylthieno[2,3-b]pyridine-2-carboxamide] | 1 to 50 nM |
| Cc1ccc2c(N)c(C(=O)N[C@H]3COc4cc(N5C[C@@H](N)CC[C@@H]5C(F)(F)F)ccc4C3)sc2n1 [Example 246, 3-amino-N-[(3R)-7-[(2R,5S)-5-amino-2-(trifluoromethyl)piperidin-1-yl]-3,4-dihydro-2H-1-benzopyran-3-yl]-6-methylthieno[2,3-b]pyridine-2-carboxamide] | 1 to 50 nM |
| Cc1ccc2c(N)c(C(=O)N[C@H]3COc4cc(N5C[C@H](N)CC[C@H]5C(F)(F)F)ccc4C3)sc2n1 [Example 247, 3-amino-N-[(3R)-7-[(2S,5R)-5-amino-2-(trifluoromethyl)piperidin-1-yl]-3,4-dihydro-2H-1-benzopyran-3-yl]-6-methylthieno[2,3-b]pyridine-2-carboxamide] | 1 to 50 nM |
